Experimental data from PubChem BioAssay AID200 (DTP/NCI, 2004).
Values joined by “and” are separate entries in the source; they are usually repeats but may differ in a detail not shown here. Equal values may be shown once. Inconclusive results and toxic doses are left out.

Tested on: B6C3F1 mice, B16 melanoma ip, median survival T/C
Test: NCI In Vivo Anticancer Drug Screen. Data for tumor model B16 Melanoma (intraperitoneal) in B6C3F1 mice
Settings: endpoint: median survival time, higher = longer survival
Method in brief: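 Transplantable tumor in mice; treated vs vehicle control groups; survival or tumor size measured; value = T/C ratio.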

[1] = dose: 12.5 mg/kg/injection, schedule: Q01DX009 (ip), vehicle: saline with Tween-80
[2] = dose: 25.0 mg/kg/injection, schedule: Q01DX009 (ip), vehicle: saline with Tween-80
[3] = dose: 50.0 mg/kg/injection, schedule: Q01DX009 (ip), vehicle: saline with Tween-80
[4] = dose: 50.0 mg/kg/injection, schedule: Q01DX009 (ip), vehicle: saline
[5] = dose: 100.0 mg/kg/injection, schedule: Q01DX009 (ip), vehicle: saline with Tween-80

## CC1(CO)C(O)CCC2(C)C1CCC1CC3CC12CCC3(O)CO (stereo unspecified)
dose: 10.0 mg/kg/injection, schedule: Q03HX027 (ip), vehicle: saline with Tween-80
  T/C: 118 % of control
[1]
  T/C: 116 % of control and 117 % of control
[2]
  T/C: 119 % of control and 122 % of control
dose: 30.0 mg/kg/injection, schedule: Q01DX005 (iv), vehicle: Klucel (hydroxypropylcellulose) (HPC)
  T/C: 103 % of control
dose: 40.0 mg/kg/injection, schedule: Q03HX027 (ip), vehicle: saline with Tween-80
  T/C: 187 % of control and 202 % of control
dose: 50.0 mg/kg/injection, schedule: Q01DX009 (ip), vehicle: distilled water + Tween-80
  T/C: 179 % of control
[3]
  T/C: 159 % of control
[4]
  T/C: 109 % of control
dose: 60.0 mg/kg/injection, schedule: Q01DX005 (iv), vehicle: Klucel (hydroxypropylcellulose) (HPC)
  T/C: 95 % of control
dose: 60.0 mg/kg/injection, schedule: Q01DX005 (oral), vehicle: Klucel (hydroxypropylcellulose) (HPC)
  T/C: 106 % of control
dose: 75.0 mg/kg/injection, schedule: Q01DX009 (ip), vehicle: saline
  T/C: 113 % of control
dose: 80.0 mg/kg/injection, schedule: Q03HX027 (ip), vehicle: saline with Tween-80
  T/C: 235 % of control
dose: 100.0 mg/kg/injection, schedule: Q01DX009 (ip), vehicle: distilled water + Tween-80
  T/C: 166 % of control
[5]
  T/C: 162 % of control and 173 % of control and 187 % of control
dose: 100.0 mg/kg/injection, schedule: Q01DX009 (ip), vehicle: saline
  T/C: 119 % of control
dose: 120.0 mg/kg/injection, schedule: Q01DX005 (ip), vehicle: Klucel (hydroxypropylcellulose) (HPC)
  T/C: 150 % of control
dose: 120.0 mg/kg/injection, schedule: Q01DX005 (iv), vehicle: Klucel (hydroxypropylcellulose) (HPC)
  T/C: 104 % of control
dose: 120.0 mg/kg/injection, schedule: Q01DX005 (oral), vehicle: Klucel (hydroxypropylcellulose) (HPC)
  T/C: 99 % of control
dose: 150.0 mg/kg/injection, schedule: Q01DX009 (ip), vehicle: saline
  T/C: 161 % of control
dose: 200.0 mg/kg/injection, schedule: Q01DX009 (ip), vehicle: distilled water + Tween-80
  T/C: 201 % of control
dose: 200.0 mg/kg/injection, schedule: Q01DX009 (ip), vehicle: saline with Tween-80
  T/C: 236 % of control
dose: 240.0 mg/kg/injection, schedule: Q01DX005 (ip), vehicle: Klucel (hydroxypropylcellulose) (HPC)
  T/C: 184 % of control
dose: 240.0 mg/kg/injection, schedule: Q01DX005 (oral), vehicle: Klucel (hydroxypropylcellulose) (HPC)
  T/C: 104 % of control
dose: 480.0 mg/kg/injection, schedule: Q01DX005 (oral), vehicle: Klucel (hydroxypropylcellulose) (HPC)
  T/C: 100 % of control

## O=C[C@@H](CO)O[C@H](C=O)c1c[nH]c(=O)[nH]c1=O
dose: 25.0 mg/kg/injection, schedule: Q01DX009 (ip), vehicle: saline
  T/C: 105 % of control
[4]
  T/C: 110 % of control

## CN(C)c1nc(N(C)C)nc(N(C)C)n1
[1]
  T/C: 88 % of control

## CCC(/C=C/C1OC(=O)C=CC1C)=C\C(C)C/C=C/C(C)=C/C(C)C(=O)C(C)C(O)C(C)C/C(C)=C/C(=O)O (stereo unspecified)
dose: 6.25 micrograms/kg/injection, schedule: Q01DX009 (sc), vehicle: other
  T/C: 105 % of control
dose: 12.5 micrograms/kg/injection, schedule: Q01DX009 (ip), vehicle: other
  T/C: 159 % of control
dose: 12.5 micrograms/kg/injection, schedule: Q01DX009 (ip), vehicle: saline + alcohol
  T/C: 156 % of control and 198 % of control
dose: 12.5 micrograms/kg/injection, schedule: Q01DX009 (sc), vehicle: other
  T/C: 102 % of control
dose: 25.0 micrograms/kg/injection, schedule: Q01DX009 (ip), vehicle: saline + alcohol
  T/C: 165 % of control
dose: 25.0 micrograms/kg/injection, schedule: Q01DX009 (sc), vehicle: other
  T/C: 115 % of control

## CC1CCC(NC(=O)N(CCCl)N=O)CC1 (stereo unspecified)
dose: 2.5 mg/kg/injection, schedule: Q01DX005 (ip), vehicle: other
  T/C: 114 % of control
dose: 2.5 mg/kg/injection, schedule: Q01DX005 (iv), vehicle: other
  T/C: 107 % of control
dose: 4.0 mg/kg/injection, schedule: Q04DX002 (ip), vehicle: other
  T/C: 98 % of control
dose: 5.0 mg/kg/injection, schedule: Q01DX005 (ip), vehicle: other
  T/C: 151 % of control
dose: 8.0 mg/kg/injection, schedule: Q04DX002 (ip), vehicle: other
  T/C: 113 % of control
dose: 10.0 mg/kg/injection, schedule: Q01DX001 (iv), vehicle: other
  T/C: 111 % of control
dose: 10.0 mg/kg/injection, schedule: Q01DX005 (ip), vehicle: other
  T/C: 294 % of control
dose: 16.0 mg/kg/injection, schedule: Q04DX002 (ip), vehicle: other
  T/C: 165 % of control
dose: 20.0 mg/kg/injection, schedule: Q01DX001 (ip), vehicle: other
  T/C: 162 % of control
dose: 20.0 mg/kg/injection, schedule: Q01DX001 (iv), vehicle: other
  T/C: 168 % of control
dose: 32.0 mg/kg/injection, schedule: Q04DX002 (ip), vehicle: other
  T/C: 76 % of control
dose: 40.0 mg/kg/injection, schedule: Q01DX001 (ip), vehicle: other
  T/C: 223 % of control
dose: 40.0 mg/kg/injection, schedule: Q01DX001 (iv), vehicle: other
  T/C: 222 % of control

## CN(N=O)C(=O)NCCCCCNC(=O)N(C)N=O
[1]
  T/C: 98 % of control
[2]
  T/C: 100 % of control
[3]
  T/C: 109 % of control
[5]
  T/C: 110 % of control

## NC1C(O)C(O)C(Nc2ncnc3nc[nH]c23)OC1C(O)CO (stereo unspecified)
dose: 10.0 mg/kg/injection, schedule: Q01DX009 (ip), vehicle: saline
  T/C: 99 % of control
dose: 20.0 mg/kg/injection, schedule: Q01DX009 (ip), vehicle: saline
  T/C: 96 % of control
dose: 40.0 mg/kg/injection, schedule: Q01DX009 (ip), vehicle: saline
  T/C: 94 % of control
dose: 80.0 mg/kg/injection, schedule: Q01DX009 (ip), vehicle: saline
  T/C: 106 % of control

## NC1=NC(O)C=C1 (stereo unspecified)
dose: 3.12 mg/kg/injection, schedule: Q01DX009 (ip), vehicle: saline + alcohol
  T/C: 108 % of control
dose: 6.25 mg/kg/injection, schedule: Q01DX009 (ip), vehicle: saline + alcohol
  T/C: 108 % of control
dose: 12.5 mg/kg/injection, schedule: Q01DX009 (ip), vehicle: saline + alcohol
  T/C: 100 % of control
dose: 25.0 mg/kg/injection, schedule: Q01DX009 (ip), vehicle: saline + alcohol
  T/C: 104 % of control

## COc1ccc2[nH]c3c(c2c1)CCNC3CC(C)CCC=C(C)C (stereo unspecified)
dose: 6.25 mg/kg/injection, schedule: Q01DX009 (ip), vehicle: Klucel (hydroxypropylcellulose) (HPC)
  T/C: 99 % of control
dose: 12.5 mg/kg/injection, schedule: Q01DX009 (ip), vehicle: Klucel (hydroxypropylcellulose) (HPC)
  T/C: 88 % of control
dose: 25.0 mg/kg/injection, schedule: Q01DX009 (ip), vehicle: Klucel (hydroxypropylcellulose) (HPC)
  T/C: 97 % of control
dose: 50.0 mg/kg/injection, schedule: Q01DX009 (ip), vehicle: Klucel (hydroxypropylcellulose) (HPC)
  T/C: 102 % of control
dose: 100.0 mg/kg/injection, schedule: Q01DX009 (ip), vehicle: Klucel (hydroxypropylcellulose) (HPC)
  T/C: 105 % of control

## Cn1cnc([N+](=O)[O-])c1Sc1nc(N)nc2c1ncn2C1OC(CO)C(O)C1O (stereo unspecified)
dose: 3.12 mg/kg/injection, schedule: Q01DX009 (ip), vehicle: suspension in saline
  T/C: 116 % of control
dose: 3.13 mg/kg/injection, schedule: Q01DX009 (ip), vehicle: saline with Tween-80
  T/C: 111 % of control
dose: 6.25 mg/kg/injection, schedule: Q01DX009 (ip), vehicle: saline with Tween-80
  T/C: 97 % of control
dose: 6.25 mg/kg/injection, schedule: Q01DX009 (ip), vehicle: suspension in saline
  T/C: 117 % of control
[1]
  T/C: 94 % of control
dose: 12.5 mg/kg/injection, schedule: Q01DX009 (ip), vehicle: suspension in saline
  T/C: 93 % of control

## Cn1c(-c2ccc(/C=N\N3CCN(/N=C/c4ccc(-c5c[n+]6ccsc6n5C)cc4)CC3)cc2)c[n+]2ccsc12
dose: 0.75 mg/kg/injection, schedule: Q01DX009 (ip), vehicle: saline with Tween-80
  T/C: 103 % of control
dose: 1.5 mg/kg/injection, schedule: Q01DX009 (ip), vehicle: saline with Tween-80
  T/C: 104 % of control
dose: 3.0 mg/kg/injection, schedule: Q01DX009 (ip), vehicle: saline with Tween-80
  T/C: 113 % of control
dose: 6.0 mg/kg/injection, schedule: Q01DX009 (ip), vehicle: saline with Tween-80
  T/C: 113 % of control

## Oc1cccc2ccccc12
dose: 25.0 mg/kg/injection, schedule: Q01DX009 (sc), vehicle: other
  T/C: 97 % of control
dose: 50.0 mg/kg/injection, schedule: Q01DX009 (sc), vehicle: other
  T/C: 94 % of control
dose: 100.0 mg/kg/injection, schedule: Q01DX009 (sc), vehicle: other
  T/C: 100 % of control
dose: 200.0 mg/kg/injection, schedule: Q01DX009 (sc), vehicle: other
  T/C: 92 % of control

## CN=S(=O)(OCCCCCOS(=O)(=NC)c1ccc(C)cc1)c1ccc(C)cc1 (stereo unspecified)
[1]
  T/C: 94 % of control
[2]
  T/C: 104 % of control
[3]
  T/C: 113 % of control
[5]
  T/C: 123 % of control
